Source: ChEMBL document CHEMBL1127781, “Antitumor agents. 7. Synthesis and antitumor activity of novel hexacyclic camptothecin analogues” (J Med Chem, 1994)
Converted amounts (≈) assume the structure as drawn.

Experiments:
HOC-21 cell line = assay: Tested in vitro for the inhibition of HOC-21(human ovarian cancer) cell line by MTT assay; assay type: functional, cell-based
P388 [1] = assay: Tested in vitro for the inhibition of P388 (mouse leukemia) cell line by MTT assay; assay type: functional, cell-based
QG-56 = assay: Tested in vitro for the inhibition of QG-56 (human lung squamous cell carcinoma) cell line by MTT assay; assay type: functional, cell-based
Mus musculus [2] = assay: Tested for (median survival time of treated/control animals) x100 at dosage of 240 mg/kg.; assay type: functional
Mus musculus [3] = assay: Tested for (median survival time of treated/control animals) x100 at dosage of 60 mg/kg.; assay type: functional
[4] = Tested for (median survival time of treated/control animals) x100 at dosage of 480 mg/kg.; assay type: functional
Mus musculus [5] = assay: Tested for (median survival time of treated/control animals) x100 at dosage of 120 mg/kg.; assay type: functional
[6] = Tested for (median survival time of treated/control animals) x100 at dosage of 30 mg/kg.; assay type: functional
[7] = Tested for median survival time of treated/control animals) x100 at dosage of 480 mg/kg.; assay type: functional
[8] = Tested for median survival time of treated/control animals) x100 at dosage of 240 mg/kg.; assay type: functional
[9] = Tested for median survival time of treated/control animals) x100 at dosage of 120 mg/kg.; assay type: functional
[10] = Tested for median survival time of treated/control animals) x100 at dosage of 30 mg/kg.; assay type: functional
[11] = Tested for median survival time of treated/control animals) x100 at dosage of 60 mg/kg.; assay type: functional
[12] = Tested for (median survival time of treated/control animals) x100 at dosage of 120 mg/kg; assay type: functional
[13] = Tested for (median survival time of treated/control animals) x100 at dosage of 240 mg/kg; assay type: functional
[14] = Tested for (median survival time of treated/control animals) x100 at dosage of 60 mg/kg; assay type: functional
[15] = Tested for (median survival time of treated/control animals) x100 at dosage of 30 mg/kg; assay type: functional
P388 [16] = assay: Tested in vitro for the inhibition of P388 (mouse leukemia) cell line by MTT assay; 1.95-6.93 ng/mL; assay type: functional, cell-based

Structure (SMILES) | IC50 (HOC-21 cell line) | IC50 (P388 [1]) | IC50 (QG-56) | T/C (Mus musculus [5]) | other results
CCC1(O)C(=O)OCc2c1cc1n(c2=O)Cc2c-1nc1cccc(CN)c1c2C (stereo not given) | 44.8 ng/mL (≈ 0.114 µM) | 5.02 ng/mL (≈ 0.0128 µM) | 6.36 ng/mL (≈ 0.0162 µM) |  | 
CCC1(O)C(=O)OCc2c1cc1n(c2=O)Cc2c-1nc1cccc(COC(C)=O)c1c2COC(C)=O (stereo not given) | > 500 ng/mL | 40.5 ng/mL (≈ 0.0822 µM) | 7.41 ng/mL (≈ 0.015 µM) |  | 
CC[C@@]1(O)C(=O)OCc2c1cc1n(c2=O)Cc2c-1nc1cccc3c1c2CNC3 | 37.8 ng/mL (≈ 0.0969 µM) | 3.39 ng/mL (≈ 0.00871 µM) | 2.98 ng/mL (≈ 0.00765 µM) |  | 
CC[C@@]1(O)C(=O)OCc2c1cc1n(c2=O)Cc2c-1nc1ccc(C)c3c1c2CCC3 | 5.88 ng/mL (≈ 0.0146 µM) | 0.78 ng/mL (≈ 0.00194 µM) | 0.68 ng/mL (≈ 0.00169 µM) |  | 
CC[C@@]1(O)C(=O)OCc2c1cc1n(c2=O)Cc2c-1nc1cccc3c1c2CCCC3 | 15.6 ng/mL (≈ 0.0388 µM) | 1.22 ng/mL (≈ 0.00303 µM) | 1.73 ng/mL (≈ 0.0043 µM) |  | 
CC[C@@]1(O)C(=O)OCc2c1cc1n(c2=O)Cc2c-1nc1cccc3c1c2COC3 | 12.3 ng/mL (≈ 0.0315 µM) | 0.95 ng/mL (≈ 0.00243 µM) | 1.14 ng/mL (≈ 0.00292 µM) |  | 
CC[C@@]1(O)C(=O)OCc2c1cc1n(c2=O)Cc2c-1nc1cccc(C)c1c2C | > 500 ng/mL | 3.76 ng/mL (≈ 0.00999 µM) | 0.6 ng/mL (≈ 0.00159 µM) |  | 
CC[C@@]1(O)C(=O)OCc2c1cc1n(c2=O)Cc2c-1nc1ccc(O)c3c1c2CCC3 | 12.6 ng/mL (≈ 0.0312 µM) | 1.6 ng/mL (≈ 0.00396 µM) | 0.26 ng/mL (≈ 0.000643 µM) |  | 
CCC1(O)C(=O)OCc2c1cc1n(c2=O)Cc2c-1nc1ccc(O)c3c1c2CCO3 (racemic) | 79 ng/mL (≈ 0.194 µM) |  | 1.1 ng/mL (≈ 0.00271 µM) | 233% | T/C (Mus musculus [2]): 20%; T/C (Mus musculus [3]): 221%; T/C [4]: 19%; T/C [6]: 147%
CCC1(O)C(=O)OCc2c1cc1n(c2=O)Cc2c-1nc1ccc(O)c3c1c2CCC3 (racemic) | 26.4 ng/mL (≈ 0.0653 µM) | 3.8 ng/mL (≈ 0.0094 µM) | 0.5 ng/mL (≈ 0.00124 µM) |  | T/C [7]: 88.5%; T/C [8]: >392%; T/C [9]: 354%; T/C [10]: 182%; T/C [11]: 201%
CCC1(O)C(=O)OCc2c1cc1n(c2=O)Cc2c-1nc1ccc(O)c3c1c2CC3 (racemic) | 15.9 ng/mL (≈ 0.0407 µM) | 2.22 ng/mL (≈ 0.00569 µM) | 1.25 ng/mL (≈ 0.0032 µM) | 110% | T/C (Mus musculus [2]): 90.9%; T/C (Mus musculus [3]): 206%; T/C [4]: 78.2%; T/C [6]: 167%
CCC1(O)C(=O)OCc2c1cc1n(c2=O)Cc2c-1nc1ccc(C)c3c1c2CCO3 (racemic) | 41.9 ng/mL (≈ 0.104 µM) | 4.5 ng/mL (≈ 0.0111 µM) | 1.38 ng/mL (≈ 0.00341 µM) | 273% | T/C (Mus musculus [2]): 376%; T/C (Mus musculus [3]): 260%; T/C [4]: >376%
CCC1(O)C(=O)OCc2c1cc1n(c2=O)Cc2cc3ccccc3nc2-1 (racemic) |  |  |  |  | T/C [12]: 148%; T/C [13]: 163%; T/C [14]: 128%; T/C [15]: 128%
CCC1(O)C(=O)OCc2c1cc1n(c2=O)Cc2c-1nc1ccc(C)c3c1c2CCN3 (racemic) | 41.8 ng/mL (≈ 0.104 µM) |  | 1.68 ng/mL (≈ 0.00416 µM) | 207% | T/C (Mus musculus [2]): 174%; T/C [4]: 180%
CCC1(O)C(=O)OCc2c1cc1n(c2=O)Cc2c-1nc1ccc(C)c3c1c2CCS3 (racemic) | 35.8 ng/mL (≈ 0.0851 µM) | 3.77 ng/mL (≈ 0.00897 µM) | 3.36 ng/mL (≈ 0.00799 µM) | 293% | T/C [7]: >400%; T/C [8]: 290%; T/C (Mus musculus [3]): 224%; T/C [6]: 205%
CCc1c2c(nc3ccc(O)cc13)-c1cc3c(c(=O)n1C2)COC(=O)[C@]3(O)CC [7-ETHYL-10-HYDROXYCAMPTOTHECIN] | 123 ng/mL (≈ 0.314 µM) |  | 3.17 ng/mL (≈ 0.00808 µM) | 258% | T/C (Mus musculus [2]): 67%; T/C (Mus musculus [3]): 191%; IC50 (P388 [16]): 6.93 ng/mL (≈ 0.0177 µM); T/C [6]: 146%
CC[C@@]1(O)C(=O)OCc2c1cc1n(c2=O)Cc2cc3ccccc3nc2-1 [CAMPTOTHECIN] | 14.7 ng/mL (≈ 0.0422 µM) | 4.74 ng/mL (≈ 0.0136 µM) | 4.63 ng/mL (≈ 0.0133 µM) |  | T/C [12]: 176%; T/C [13]: 144%; T/C [14]: 142%; T/C [15]: 130%
